Measurements from US9045435B2, “Quinazoline compounds as sodium channel blockers” (Purdue Pharma, L.P., priority 2010, dated 2015).
Read-outs that look alike come from different tables or passages of the source.

How the values were obtained:
[1] = biological target: human Nav1.7 (Homo sapiens, UniProt Q15858); assay: FLIPR or FLIPR TETRA sodium dye assay with KCl and test article pre-incubation; format: cell-based
[2] = biological target: hNav1.7 (Homo sapiens, UniProt Q15858); assay: Electrophysiology (EP) assay, whole-cell patch clamp; format: cell-based; settings: for Kd: resting block dissociation constant, read-out: EP Nav1.7 Kr
hNav1.7, sequence (Q15858 1-1977 isoform Q15858-3): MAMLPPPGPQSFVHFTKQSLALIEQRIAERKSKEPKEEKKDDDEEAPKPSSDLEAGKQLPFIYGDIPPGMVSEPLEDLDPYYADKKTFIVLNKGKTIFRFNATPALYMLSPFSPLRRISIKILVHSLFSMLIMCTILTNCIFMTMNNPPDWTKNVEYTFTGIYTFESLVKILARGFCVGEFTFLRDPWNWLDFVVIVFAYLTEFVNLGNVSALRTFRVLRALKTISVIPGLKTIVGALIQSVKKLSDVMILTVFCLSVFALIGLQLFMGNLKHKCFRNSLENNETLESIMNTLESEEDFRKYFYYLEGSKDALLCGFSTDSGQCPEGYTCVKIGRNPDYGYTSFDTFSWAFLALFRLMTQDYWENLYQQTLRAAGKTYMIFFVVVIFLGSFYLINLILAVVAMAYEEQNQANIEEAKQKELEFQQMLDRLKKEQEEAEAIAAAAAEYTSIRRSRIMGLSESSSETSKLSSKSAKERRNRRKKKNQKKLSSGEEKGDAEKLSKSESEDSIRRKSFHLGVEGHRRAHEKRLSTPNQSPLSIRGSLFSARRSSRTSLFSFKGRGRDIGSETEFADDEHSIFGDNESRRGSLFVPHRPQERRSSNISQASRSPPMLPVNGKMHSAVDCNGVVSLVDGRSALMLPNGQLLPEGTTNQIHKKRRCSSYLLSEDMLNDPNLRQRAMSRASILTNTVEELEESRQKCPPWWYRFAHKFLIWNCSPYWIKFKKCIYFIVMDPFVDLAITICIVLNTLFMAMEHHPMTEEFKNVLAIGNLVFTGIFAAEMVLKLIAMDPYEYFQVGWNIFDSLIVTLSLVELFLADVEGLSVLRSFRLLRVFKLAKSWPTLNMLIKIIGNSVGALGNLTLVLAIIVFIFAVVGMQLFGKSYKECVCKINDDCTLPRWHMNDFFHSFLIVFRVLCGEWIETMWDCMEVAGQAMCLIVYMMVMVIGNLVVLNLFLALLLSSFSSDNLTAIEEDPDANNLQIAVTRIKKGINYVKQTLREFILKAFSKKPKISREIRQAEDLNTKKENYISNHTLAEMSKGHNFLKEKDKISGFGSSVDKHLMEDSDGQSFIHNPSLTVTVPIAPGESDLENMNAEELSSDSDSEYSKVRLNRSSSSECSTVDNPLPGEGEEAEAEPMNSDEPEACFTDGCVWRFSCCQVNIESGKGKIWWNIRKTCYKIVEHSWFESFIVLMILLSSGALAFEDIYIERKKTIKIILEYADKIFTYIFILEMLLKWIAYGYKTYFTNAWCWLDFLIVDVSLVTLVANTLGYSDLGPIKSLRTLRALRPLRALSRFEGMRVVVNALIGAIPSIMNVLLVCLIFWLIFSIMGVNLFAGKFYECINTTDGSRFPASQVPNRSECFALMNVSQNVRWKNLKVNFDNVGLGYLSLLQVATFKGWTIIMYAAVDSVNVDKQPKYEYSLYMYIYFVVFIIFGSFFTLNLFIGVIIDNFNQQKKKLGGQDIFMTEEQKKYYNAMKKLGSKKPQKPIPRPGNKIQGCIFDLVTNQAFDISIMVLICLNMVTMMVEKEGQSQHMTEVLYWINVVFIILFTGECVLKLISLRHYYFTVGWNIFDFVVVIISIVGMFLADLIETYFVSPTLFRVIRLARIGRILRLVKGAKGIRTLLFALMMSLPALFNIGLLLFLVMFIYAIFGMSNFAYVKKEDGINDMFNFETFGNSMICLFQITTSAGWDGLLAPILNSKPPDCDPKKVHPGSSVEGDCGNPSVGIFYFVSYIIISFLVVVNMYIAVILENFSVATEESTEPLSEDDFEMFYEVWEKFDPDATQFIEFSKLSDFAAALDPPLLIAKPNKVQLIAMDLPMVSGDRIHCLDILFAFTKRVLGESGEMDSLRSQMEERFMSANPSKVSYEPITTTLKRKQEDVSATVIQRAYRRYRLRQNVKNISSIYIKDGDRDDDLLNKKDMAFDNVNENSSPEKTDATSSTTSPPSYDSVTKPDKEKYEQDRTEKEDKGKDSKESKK
Protocol: The hNav1.7 expressing HEK-293 cells were plated on 35 mm culture dishes pre-coated with poly-D-lysine in standard DMEM culture media (Mediatech, Inc., Herndon, Va.) and incubated in a 5% CO2 incubator at 37° C. Cultured cells were used approximately 12-48 hours after plating.
On the day of experimentation, the 35 mm dish was placed on the stage of an inverted microscope equipped with a perfusion system that continuously perfuses the culture dish with fresh recording media. A gravity driven superfusion system was used to apply test solutions directly to the cell under evaluation. This system consists of an array of glass pipette glass connected to a motorized horizontal translator. The outlet of the shooter was positioned approximately 100 μm from the cell of interest.
Whole cell currents were recorded using the whole-cell patch clamp configuration using an Axopatch 200B amplifier (Axon Instruments, Foster City Calif.), 1322A A/D converter (Axon Instruments) and pClamp software (v. 8; Axon Instruments) and stored on a personal computer. Gigaseals were formed and the whole-cell configuration was established in voltage clamp mode, and membrane currents generated by hNav1.7 were recorded in gap-free mode. Borosilicate glass pipettes have resistance values between 1.5 and 2.0 MΩ when filled with pipette solution and series resistance (<5 MΩ) was compensated 75-80%. Signals were sampled at 50 kHz and low pass filtered at 3 kHz.
After establishing the whole-cell configuration in voltage clamp mode, voltage protocols were run to establish the 1) test potential, 2) holding potential, and 3) the conditioning potential for each cell.
After establishing the whole-cell configuration in voltage clamp mode, a standard I-V protocol was run to determine the potential at which the maximal current (Imax) is elicited. This potential was the test potential (Vt). To determine a conditioning potential at which 100% of channels were in the inactivated state, a standard steady-state inactivation (SSIN) protocol was run using a series of fifteen 100 ms-long depolarizing prepulses, incrementing in 10 mV steps, immediately followed by a 5 ms testing pulse, Vt, to Vmax. This protocol also permitted determination of the holding potential at which all channels are in the resting state.
For compounds causing significant retardation of recovery from inactivation, an estimate of the affinity for the inactivated state of the channel (Ki) was generated using the following protocol. From the negative, no residual inactivation, holding potential, the cell was depolarized to the conditioning voltage for 2-5 seconds, returned to the negative holding potential for 10-20 ms to relieve fast inactivation and then depolarized to the test potential for ˜15 ms. This voltage protocol was repeated every 10-15 seconds, first to establish a baseline in the absence of the test compound, then in the presence of the test compound.
After a stable baseline was established, the test compound was applied and block of the current elicited by the test pulse assessed. In some cases, multiple cumulative concentrations were applied to identify a concentration that blocked between 40-60% of this current. Washout of the compound was attempted by superfusing with control solution once steady-state block was observed. An estimate of the Ki was calculated as follows: Ki=[drug]*{FR/(1−FR)}, Eq. 1 where [drug] is the concentration of a drug, and FR=I(after drug)/I(control), Eq. 2 where I is the peak current amplitude. If multiple concentrations were used, Ki was determined from the fit of a logistic equation to FRs plotted against corresponding drug concentrations.
In the alternative, the voltage clamp protocol to examine hNav1.7 currents was as follows. […]

[3] = sodium dye assay with KCl, recombinant Nav1.7/HEK293 cells, read-out: FLIPR Nav1.7 IC50 (μM) ± SEM
[4] = affinity for the inactivated state of the channel, HEK-293 cells, spread on the next grid line, read-out: EP Nav1.7 Kj
[5] = HEK-293 cells, spread on the next grid line

human Nav1.7, sequence (Q15858 1-1977 isoform Q15858-3): as above

Compound | IC50 [1, 3] [µM] | other results
CCOC(=O)c1nc(-c2ccc(Oc3ccccc3)cc2)c2ccccc2n1 [Compound 3, ethyl 4-(4-phenoxyphenyl)quinazoline-2-carboxylate] | 1.57 | 
O=C(O)c1nc(-c2ccc(Oc3ccccc3)cc2)c2ccccc2n1 [Compound 4, 4-(4-phenoxyphenyl)quinazoline-2-carboxylic acid] | > 20 | 
NC(=O)c1nc(-c2ccc(Oc3ccccc3)cc2)c2ccccc2n1 [Compound 5, 4-(4-phenoxyphenyl)quinazoline-2-carboxamide] | 0.097 | Ki [2, 4]: 0.12 µM
OC[C@@H](O)c1nc(-c2ccc(Oc3ccc(F)cc3)cc2)c2ccccc2n1 [Compound 10, (S)-1-(4-(4-(4-fluorophenoxy)phenyl)quinazolin-2-yl)ethane-1,2-diol] | 0.849 | 
NC(=O)[C@H](CO)Nc1nc(-c2ccc(Oc3ccc(F)cc3)cc2)c2ccccc2n1 [Compound 13a, (S)-2-{4-[4-(4-fluorophenoxy)phenyl]quinazolin-2-ylamino}-3-hydroxy-propionamide] | 0.836 | Ki [2, 4]: 0.74 µM
O=C1CN(c2nc(-c3ccc(Oc4ccc(F)cc4)cc3)c3ccccc3n2)CCN1 [Compound 13b, 4-(4-(4-(4-fluorophenoxy)phenyl)quinazolin-2-yl)piperazin-2-one] | 0.839 | 
OCCNc1nc(-c2ccc(Oc3ccc(F)cc3)cc2)c2ccccc2n1 [Compound 13c, 2-((4-(4-(4-fluorophenoxy)phenyl)quinazolin-2-yl)amino)ethanol] | 0.369 | 
CN(C)CCNc1nc(-c2ccc(Oc3ccc(F)cc3)cc2)c2ccccc2n1 [Compound 13d, N^1-(4-(4-(4-fluorophenoxy)phenyl)quinazolin-2-yl)-N^2,N^2-dimethylethane-1,2-diamine] | 0.317 | 
Nc1nc(-c2ccc(Oc3ccc(F)cc3)cc2)c2ccccc2n1 [Compound 13e, 4-(4-(4-fluorophenoxy)phenyl)quinazolin-2-amine] | 0.426 | 
COC(=O)[C@@H]1CCCN1c1nc(-c2ccc(Oc3ccc(F)cc3)cc2)c2ccccc2n1 [Compound 13f, (S)-methyl 1-(4-(4-(4-fluorophenoxy)phenyl)-quinazolin-2-yl)pyrrolidine-2-carboxylate] | 0.642 | Ki [2, 4]: 0.62 µM; Kd [2, 5]: 23.9 µM
CN(N)c1nc(-c2ccc(Oc3ccc(F)cc3)cc2)c2ccccc2n1 [Compound 13g, 4-(4-(4-fluorophenoxy)phenyl)-2-(1-methylhydrazinyl)quinazoline] | 0.309 | 
CCN1CCN(c2nc(-c3ccc(Oc4ccc(F)cc4)cc3)c3ccccc3n2)CC1 [Compound 13h, 2-(4-ethylpiperazin-1-yl)-4-(4-(4-fluorophenoxy)phenyl)quinazoline] | 0.236 | 
OC1CCN(c2nc(-c3ccc(Oc4ccc(F)cc4)cc3)c3ccccc3n2)CC1 [Compound 13i, 1-(4-(4-(4-fluorophenoxy)phenyl)quinazolin-2-yl)piperidin-4-ol] | 0.428 | 
OCCN1CCN(c2nc(-c3ccc(Oc4ccc(F)cc4)cc3)c3ccccc3n2)CC1 [Compound 13j, 2-(4-(4-(4-(4-fluorophenoxy)phenyl)quinazolin-2-yl)piperazin-1-yl)ethanol] | 0.104 | 
CN1CCN(c2nc(-c3ccc(Oc4ccc(F)cc4)cc3)c3ccccc3n2)CC1 [Compound 13k, 4-(4-(4-fluorophenoxy)phenyl)-2-(4-methylpiperazin-1-yl)quinazoline] | 0.418 | Ki [2, 4]: 0.07 µM; Kd [2, 5]: 2.09 µM
NC(=O)[C@@H]1CCCN1c1nc(-c2ccc(Oc3ccc(F)cc3)cc2)c2ccccc2n1 [Compound 13l, (S)-1-(4-(4-(4-fluorophenoxy)phenyl)quinazolin-2-yl)pyrrolidine-2-carboxamide] | 0.105 | Ki [2, 4]: 0.19 µM
COC(=O)[C@@H]1C[C@@H](O)CN1c1nc(-c2ccc(Oc3ccc(F)cc3)cc2)c2ccccc2n1 [Compound 13m, (2S,4R)-methyl 1-(4-(4-(4-fluorophenoxy)phenyl)quinazolin-2-yl)-4-hydroxypyrrolidine-2-carboxylate] | 0.833 | 
CNc1nc(-c2ccc(Oc3ccc(F)cc3)cc2)c2ccccc2n1 [Compound 13n, 4-(4-(4-fluorophenoxy)phenyl)-N-methylquinazolin-2-amine] | 0.294 | 
Fc1ccc(Oc2ccc(-c3nc(NCCCn4ccnc4)nc4ccccc34)cc2)cc1 [Compound 13o, N-(3-(1H-imidazol-1-yl)propyl)-4-(4-(4-fluorophenoxy)phenyl)quinazolin-2-amine] | 0.325 | 
CN(C)CCCNc1nc(-c2ccc(Oc3ccc(F)cc3)cc2)c2ccccc2n1 [Compound 13p, N^1-(4-(4-(4-fluorophenoxy)phenyl)quinazolin-2-yl)-N^3,N^3-dimethylpropane-1,3-diamine] | 0.205 | 
OC[C@H](O)CNc1nc(-c2ccc(Oc3ccc(F)cc3)cc2)c2ccccc2n1 [Compound 13q, (R)-3-((4-(4-(4-fluorophenoxy)phenyl)quinazolin-2-yl)amino)propane-1,2-diol] | 0.071 | Ki [2, 4]: 0.22 µM
OC[C@@H](O)CNc1nc(-c2ccc(Oc3ccc(F)cc3)cc2)c2ccccc2n1 [Compound 13r, (S)-3-((4-(4-(4-fluorophenoxy)phenyl)quinazolin-2-yl)amino)propane-1,2-diol] | 0.32 | 
NC(=O)C[C@H](Nc1nc(-c2ccc(Oc3ccc(F)cc3)cc2)c2ccccc2n1)C(N)=O [Compound 13s, (S)-2-((4-(4-(4-fluorophenoxy)phenyl)quinazolin-2-yl)amino)succinamide] | 0.313 | 
CN1[C@@H]2CCC[C@H]1C[C@@H](Nc1nc(-c3ccc(Oc4ccc(F)cc4)cc3)c3ccccc3n1)C2 [Compound 13t, 4-(4-(4-fluorophenoxy)phenyl)-N-((1R,3S,5S)-9-methyl-9-azabicyclo[3.3.1]nonan-3-yl)quinazolin-2-amine] |  | Ki [2]: 0.02 µM; IC50 [1]: 0.228 µM
OCC(CO)Nc1nc(-c2ccc(Oc3ccc(F)cc3)cc2)c2ccccc2n1 [Compound 13u, 2-((4-(4-(4-fluorophenoxy)phenyl)quinazolin-2-yl)amino)propane-1,3-diol] | 0.208 | Ki [2, 4]: 0.64 µM; Kd [2, 5]: 55.3 µM
O=C1NCCN1CCNc1nc(-c2ccc(Oc3ccc(F)cc3)cc2)c2ccccc2n1 [Compound 13v, 1-(2-((4-(4-(4-fluorophenoxy)phenyl)quinazolin-2-yl)amino)ethyl)imidazolidin-2-one] | 0.204 | Ki [2, 4]: 0.46 µM; Kd [2, 5]: 23.7 µM
NN(CCO)c1nc(-c2ccc(Oc3ccc(F)cc3)cc2)c2ccccc2n1 [Compound 13w, 2-(1-(4-(4-(4-fluorophenoxy)phenyl)quinazolin-2-yl)hydrazinyl)ethanol] | 0.07 | 
NC(=O)CNc1nc(-c2ccc(Oc3ccc(F)cc3)cc2)c2ccccc2n1 [Compound 13x, 2-((4-(4-(4-fluorophenoxy)phenyl)quinazolin-2-yl)amino)acetamide] | > 20 | 
CCOc1nc(-c2ccc(Oc3ccc(F)cc3)cc2)c2ccccc2n1 [Compound 13y, 2-ethoxy-4-(4-(4-fluorophenoxy)phenyl)-quinazoline] | 0.995 | 
Fc1ccc(Oc2ccc(-c3nc(Oc4ccccn4)nc4ccccc34)cc2)cc1 [Compound 13z, 4-(4-(4-fluorophenoxy)phenyl)-2-(pyridin-2-yloxy)quinazoline] | 1.91 | 
